Where a SMILES comes first, the peptide text is derived from it. [ ]: non-standard residue; d: D form.

The subject of series [1] is WERI-Rb1 cells. In words: Trypan blue viability assay. Type of series: cell-based. The conditions noted are these: WERI-Rb1, 48 h treatment. The procedure:
WERI-Rb1 cells (1 × 10^5) were treated with increasing concentrations (7.7 µM, 36.25 µM, 72.5 µM, 145 µM, or 290 µM) of a panel of six HC peptides (HC1, HC2, HC3, HC4, HC5, and HC6). Nocodazole (10 µM) treatment was used as a positive control for the study, with untreated cells as the negative control. All treatments were performed at 37 °C in a 90% humidified incubator with 5% CO2 for 48 h. After 48 h post-treatment, cells were stained with 0.4% trypan blue (cat#15250061, Invitrogen, Waltham, MA, USA) and the number of live and dead cells for each time point was estimated using the hemocytometer cell counting protocol. The percentage of cell viability was calculated by dividing the live cell count by the total cell count.

Series [2] has as its system WERI-Rb1 cells. The experiment in a line: MTS cell viability assay. Conditions: WERI-Rb1 cells, 48 h; dose used for spheroid treatment. Type of series: cell-based. The procedure:
(§1) WERI-Rb1 and ARPE-19 cells were seeded at a concentration of 2 × 10^3 cells/well in a 96-well plate and cultured at 37 °C in a humidified 5% CO2 incubator. After seeding the cells, they were treated with various concentrations of CAPs and further incubated for 48 h at 37 °C. Cell viability was assessed after 48 h using the Cell-Titer 96® Aqueous One Solution Cell Proliferation Assay (cat#G3582, Promega, WI, USA) according to the manufacturer’s protocol and described earlier. Briefly, 10 µL of MTS reagent was added to each well and the cells were incubated at 37 °C for 2 h before the experiment end time points. Percentage cell viability was calculated from the absorbance measured at 490 nm using a TECAN microplate reader.
A general note: Tetrazolium dyes change colour on reduction, which living cells bring about.

Series [3] deals with ARPE-19 cells. The experiment in a line: MTS cell viability assay. Type of series: cell-based, Human. Conditions: ARPE-19, MTS, 48 h (Figure 2c). The procedure: as §1
In another series the test system is WERI-Rb1 tumor spheroids. In words: Tumor spheroid area by high content imaging. Type of series: cell-based. Conditions: 7-day-old WERI-Rb1 spheroids, IC50 dose, 48 h, n = 9 per condition. The procedure:
Spheroids were developed using the hanging drop protocol on low attachment U-bottom 96-well plate. The single cell suspension of 5 × 10^2 WERI-Rb1 cells in 100 µL medium was loaded in each well of a 96-well plate. The cells were cultured at 37 °C in a 90% humidified incubator with 5% CO2 for 7 days for the generation of tight and regular tumor spheroids. Seven-day-old spheroids (n = 9 per condition) were treated with 100 μL of freshly prepared medium containing an IC50 dose of topotecan (Figure S1), HC3, or HC5. The cultures were then incubated for 48 h prior to high content analysis (HCA) and immunofluorescence (IF) assays.
WERI-Rb1 cells were stained with orange plasma membrane stain as per the manufacturer’s protocol (Cell Mask Orange Plasma membrane stain; cat#C10045, Invitrogen, Waltham, MA, USA) prior to the development of spheroids. The stained WERI-Rb1 cells were used for spheroid formation using the hanging drop protocol on a low attachment U-bottom 96-well plate. […] The images were acquired using the automated high-content imaging system, IN Cell Analyzer 6000 (GE Healthcare, Singapore), equipped with a laser-based confocal platform having a 2× objective. The automatically captured single well imaging of spheroids and a Z stack of 11 images were separated by 50 µm total 500 µm depth for spheroids, using maximum intensity projection (MIP) acquisition and single-channel filter at 567 nm. To reduce data storage and image analysis time, we analyzed 2D projection images of tumor spheroids for multiple treatment conditions. Spheroid area and shape were automatically quantified by HCA using the IN-Cell 6000 software (GE Healthcare, Singapore). The mean area (µm^2) of each spheroid was calculated to elucidate the drug/peptide response.

The test system of series [4] is WERI-Rb1 cells. The experiment in a line: Western blot of DNA damage markers. Type of series: cell-based. The conditions noted are these: IC50 dose. As to the method:
WERI-Rb1 cells were seeded in 6-well cell culture plates (1 × 10^6 cells/well), incubated at 37 °C in a humidified 5% CO2 incubator, and were treated with IC50 doses of topotecan, HC3. or HC5. After 48 h, cells were lysed in RIPA buffer (20 mM Tris pH 8.0, 0.1% SDS, 150 mM NaCl, 0.08% sodium deoxycholate, 1% NP40 supplemented with one tablet of protease inhibitor and phosphatase inhibitor (Roche). 20 µg of total protein was loaded per lane and separated by SDS-PAGE. The separated proteins on the gel were transferred to PVDF membrane and were probed for antibodies against γH2A.X (1:1000, cat#2595, Cell Signaling Technology, Danvers, MA, USA), p-γH2A.X (Ser139) (1:1000, cat#2577, Cell Signaling Technology, Danvers, MA, USA), p-BCL2(Ser70) (1:1000, cat#2827, Cell Signaling Technology, Danvers, MA, USA), BCL2 (1:1000, cat#2872, Cell Signaling Technology, Danvers, MA, USA), Bax (1:1000, cat#2772, Cell Signaling Technology, Danvers, MA, USA), p-ATM(Ser1981) (1:1000, cat#5883, Cell Signaling Technology, Danvers, MA, USA), ATM (1:1000, cat#2873, Cell Signaling Technology, Danvers, MA, USA), p-Chk2(Thr68) (1:1000, cat#2661, Cell Signaling Technology, Danvers, MA, USA), Chk2 ([…], cat#2662, Cell Signaling Technology, Danvers, MA, USA), p-p53(Ser15) (1:1000, cat#9284, Cell Signaling Technology, Danvers, MA, USA), p-p53(Ser46) (1:1000, cat#2521, Cell Signaling Technology, Danvers, MA, USA), p53 (1:1000, cat#2524, Cell Signaling Technology, Danvers, MA, USA), Cleaved caspase 9 (1:1000, cat#9505, Cell Signaling Technology, Danvers, MA, USA), Cleaved caspase 3 (1:1000, cat#9661, Cell Signaling Technology, Danvers, MA, USA), Cleaved PARP (1:1000, cat#5625, Cell Signaling Technology, Danvers, MA, USA), and GAPDH (1:2000, cat#ab9485, Abcam, Cambridge, UK). Proteins of interest were detected with HRP-conjugated sheep anti-mouse (1:5000, cat#7076, Cell Signaling Technology, Danvers, MA, USA) or anti-rabbit IgG antibody (1:5000, cat#7074, Cell Signaling Technology, Danvers, MA, USA) and visualized with the Clarity ECL Western blotting substrate (Bio-Rad, Hercules, CA, USA) according to the provided protocol.
(A western blot detects proteins with antibodies after separation by electrophoresis.)

The subject of series [5] is ARPE-19 cells. In words: Western blot of apoptotic markers in cytoplasmic and mitochondrial fractions. Type of series: cell-based, Human. Conditions: ARPE-19, 48-h exposure, cytoplasmic and mitochondrial fractions (Figure 5c).

For `N=C(N)NCCC[C@H](NC(=O)[C@@H](CCCCN)NC(=O)[C@H](CCCNC(=N)N)NC(=O)[C@@H](CCCCN)NC(=O)[C@H](CCCNC(=N)N)NC(=O)[C@@H](CCCCN)NC(=O)[C@H](CCCNC(=N)N)NC(=O)[C@@H](CCCCN)NC(=O)[C@H](CCCNC(=N)N)NC(=O)[C@@H](CCCCN)NC(=O)[C@H](CCCNC(=N)N)NC(=O)[C@H](N)CCCCN)C(=O)O` [HC5] (H-[dK]R[dK]R[dK]R[dK]R[dK]R[dK]R-OH; N-terminus and C-terminus assumed), the “cell death at a high dose” value in the series on WERI-Rb1 cells [1] (high dose (dose not specified)) came to 60%. Moreover, the “cell death at a low dose” value with WERI-Rb1 cells [1] (low dose (dose not specified)) is given as 40%. The compound further displayed an IC50 in the series on WERI-Rb1 cells [2] of 65.2 µL/mL. Also, in the series with ARPE-19 cells [3], the “cytotoxic effect on non-malignant ARPE-19 cells” value is “did not display any cytotoxic effect”. Besides, in the series with WERI-Rb1 tumor spheroids, the “effect on Rb spheroid size” value was “effectively shrunk and decreased the Rb spheroid size”. Moreover, the “phosphorylation of ATM and CHK2 (immunoblot)” value with WERI-Rb1 cells [4] (48-h treatment, Western blot (Figure 4b)) is “induced phosphorylation of ATM (ataxia-telangiectasia mutated) at Ser1981 and CHK2 at Thr68”. Besides, in the series with WERI-Rb1 cells [4] (48 h, Western blot (Figure 4a)), the “γH2A.X phosphorylation at Ser139 (immunoblot)” value is recorded as “did not show any activation of γH2A.X(Ser139)”. Besides, the “apoptotic events in ARPE-19 cells (Bax, cytochrome c)” value in the series with ARPE-19 cells [5] is reported as “did not trigger any apoptotic events”.
